# Entries after “also recorded” stand apart in the source; their conditions may differ.
# System: Clostridium difficile
# Assay: Recurring Clostridium difficile diarrhoea model induced by CFT in golden hamsters
# Type: in vivo
# [1] = B group: six + 14 doses of VCM, 48 hours after termination of vancomycin
smiles,measurement,setting,value
CN[C@H](CC(C)C)C(=O)N[C@H]1C(=O)N[C@@H](CC(N)=O)C(=O)N[C@H]2C(=O)N[C@H]3C(=O)N[C@H](C(=O)N[C@H](C(=O)O)c4cc(O)cc(O)c4-c4cc3ccc4O)[C@H](O)c3ccc(c(Cl)c3)Oc3cc2cc(c3O[C@@H]2O[C@H](CO)[C@@H](O)[C@H](O)[C@H]2O[C@H]2C[C@](C)(N)[C@H](O)[C@H](C)O2)Oc2ccc(cc2Cl)[C@H]1O [vancomycin],faecal state compared with A group,[1],improvement in the faecal state
same,ratio of Clostridium difficile detection,[1],one out of five
same,faecal state,six doses of vancomycin,discernible improvement in the faecal state
same,culture of Clostridium difficile from faeces,"six doses of vancomycin (3 days administration), detection limit 400CFu/g faeces",not so effective as to show negative culture; also recorded: positive culture
same,culture of Clostridium difficile,vancomycin continued for a total of 10 days,negative culture

# From patent EP0456418B1, “Treatment of clostridium difficile diarrhoea and pseudomembranous colitis” (KABUSHIKI KAISHA MIYARISAN SEIBUTSU IGAKU KENKYUSHO, priority 1990, dated 1991)
